Assay results as given in the supplement of paper PMC4862054.

Experiments:
MDA-MB-468 [1] = assay: normalised response (% of control), CellTiter-Glo; higher = more viable cells (100 = DMSO, 0 = benzethonium chloride kill control); details: incubation time: 72 h
Summary of the method: (§1)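 The table gives the normalised signal for a single concentration in each entry. Breast cancer cell lines were seeded (20 µl suspension) into 384-well plates holding compound at 5 concentrations in 10-fold steps over a compound-specific 10,000-fold range and incubated 72 h, then read for CellTox Green fluorescence (485/520 nm) and CellTiter-Glo luminescence. Normalisation on each plate used 0.1 % DMSO (100) and a positive kill control (0).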

MCF-10A [2] = assay: as above; details: incubation time: 72 h
Summary of the method: as §1

CAL-148 [3] = assay: as above; details: incubation time: 72 h
Summary of the method: as §1

SK-BR-3 [4] = assay: as above; details: incubation time: 72 h
Summary of the method: as §1

MDA-MB-231 [5] = details: 72 h
Summary of the method: (§2)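 Two sequential readouts followed a 72 h incubation of breast cancer cell lines with compound at 5 concentrations in 10-fold steps over a compound-specific 10,000-fold range: CellTox Green fluorescence (485/520 nm) for cell death, then CellTiter-Glo luminescence, after 10 min at room temperature, for viability. Each plate was normalised to 0.1 % DMSO and a positive kill control. Dose-response curves were fitted for EC50, censored at the top concentration.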

HCC1143 [6] = details: 72 h
Summary of the method: (§3)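 Compound dissolved in 5 µl medium was placed in 384-well plates before 20 µl of breast cancer cell suspension was added, and the plates were incubated for 72 h. Cells then received 2.5 µl CellTiter-Blue for 2 h at 37 °C, and fluorescence was read at 560/590 nm. EC50 values come from percent-inhibition dose-response fits that were censored at the highest concentration, with plates normalised to vehicle and a positive kill control and rows with a zero drug sensitivity score excluded.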

HDQ-P1 [7] = details: 72 h
Summary of the method: as §3

MDA-MB-436 [8] = details: 72 h
Summary of the method: as §2

MCF-10A [9] = details: 72 h
Summary of the method: as §2

HCC1937 = details: 72 h
Summary of the method: as §2

MDA-MB-468 [10] = details: 72 h
Description: (§4)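 Drug sensitivity and resistance testing (DSRT) of breast cancer cell lines in 384-well plates, 5 concentrations in 10-fold dilutions over a compound-specific 10,000-fold range. After 72 h, cytotoxicity was read by CellTox Green fluorescence and viability by CellTiter-Glo luminescence (multiplexed), normalised to DMSO and benzethonium chloride controls. EC50 is the inflection point of the fitted dose-response curve (bottom asymptote free, so it can be relative for partial curves) and is censored at the highest tested concentration. Rows with DSS 0 (no meaningful response) were excluded.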

MDA-MB-231 [11] = details: 72 h; remark: listed apart in the source
Description: as §4

CAL-85-1 [12] = details: 72 h
Description: as §4

BT-549 [13] = details: 72 h
Description: as §4

Hs578T [14] = details: 72 h
Summary of the method: as §2

CAL-85-1 [15] = details: 72 h; remark: listed apart in the source
Summary of the method: as §2

BT-549 [16] = details: 72 h; remark: listed apart in the source
Summary of the method: as §2

CAL-120 = details: 72 h
Summary of the method: as §2

HCC1143 [17] = details: 72 h; remark: listed apart in the source
Summary of the method: as §2

SK-BR-3 [18] = details: 72 h
Summary of the method: as §2

CAL-148 [19] = details: 72 h
Summary of the method: as §2

MFM-223 = details: 72 h
Summary of the method: as §3

CAL-51 [20] = details: 72 h
Summary of the method: as §3

Hs578T [21] = details: 72 h; remark: listed apart in the source
Description: as §4

CAL-51 [22] = details: 72 h; remark: listed apart in the source
Description: as §4

HDQ-P1 [23] = details: 72 h; remark: listed apart in the source
Summary of the method: as §2

HCC1599 [24] = details: 72 h
Summary of the method: as §2

MDA-MB-453 = details: 72 h
Summary of the method: as §2

MDA-MB-436 [25] = details: 72 h; remark: listed apart in the source
Summary of the method: as §3

Hs578T [26] = details: 72 h; remark: listed apart in the source
Summary of the method: as §3

MDA-MB-468 [27] = details: 72 h; remark: listed apart in the source
Summary of the method: as §3

BT-549 [28] = details: 72 h; remark: listed apart in the source
Summary of the method: as §3

HCC1599 [29] = details: 72 h; remark: listed apart in the source
Summary of the method: as §3

SK-BR-3 [30] = details: 72 h; remark: listed apart in the source
Summary of the method: as §3

CAL-85-1 [31] = details: 72 h; remark: listed apart in the source
Summary of the method: as §3

DU-4475 = details: 72 h
Summary of the method: as §3

Cc1ccc(-n2nc(C(C)(C)C)cc2NC(=O)Nc2ccc(OCCN3CCOCC3)c3ccccc23)cc1 [Doramapimod] (10000 nM)
normalised response (MDA-MB-468 [1]): 72.5%
normalised response (MCF-10A [2]): 94.2%
normalised response (CAL-148 [3]): 75.7%
normalised response (SK-BR-3 [4]): 69.5%

Oc1nc(-c2ccc(C(F)(F)F)cc2)nc2c1CSCC2 [XAV-939]
EC50, CellTiter-Glo (MDA-MB-231 [5]): 172 nM
EC50, CellTiter-Blue viability (HCC1143 [6]): > 10000 nM
EC50, CellTiter-Blue viability (HDQ-P1 [7]): 2090 nM

O=C1CCC(N2C(=O)c3ccccc3C2=O)C(=O)N1 (stereo unspecified) [Thalidomide] (10000 nM)
normalised response (MDA-MB-468 [1]): 91.6%
normalised response (MCF-10A [2]): 98.8%
normalised response (CAL-148 [3]): 92.4%
normalised response (SK-BR-3 [4]): 106%

Cn1c(CCCC(=O)O)nc2cc(N(CCCl)CCCl)ccc21 [Bendamustine] (10000 nM)
normalised response (MDA-MB-468 [1]): 116%
normalised response (MCF-10A [2]): 114%
normalised response (CAL-148 [3]): 110%
normalised response (SK-BR-3 [4]): 105%

C#Cc1cccc(Nc2ncnc3cc(OCCOC)c(OCCOC)cc23)c1 [Erlotinib] (10000 nM)
normalised response (MDA-MB-468 [1]): 59.1%
normalised response (MCF-10A [2]): 30.9%
normalised response (CAL-148 [3]): 69.7%
normalised response (SK-BR-3 [4]): 48%

CO[C@H]1/C=C\C=C(/C)C(=O)NC2=CC(=O)C(NCCN(C)C)=C(C[C@@H](C)C[C@H](OC)[C@H](O)[C@@H](C)/C=C(\C)[C@@H]1OC(N)=O)C2=O [Alvespimycin] (1000 nM)
normalised response (MDA-MB-468 [1]): 34.2%
normalised response (MCF-10A [2]): 15.4%
normalised response (CAL-148 [3]): 26.3%
normalised response (SK-BR-3 [4]): 36%

O=P1(NCCCl)OCCCN1CCCl (stereo unspecified) [Ifosfamide] (10000 nM)
normalised response (MDA-MB-468 [1]): 93.7%
normalised response (MCF-10A [2]): 91.6%
normalised response (CAL-148 [3]): 86.7%
normalised response (SK-BR-3 [4]): 93.1%

CCCCCCCCCCCCCCCCCCOP(=O)([O-])OC1CC[N+](C)(C)CC1 [Perifosine]
EC50, CellTiter-Glo (MDA-MB-436 [8]): > 2500 nM
EC50, CellTiter-Glo (MCF-10A [9]): > 2500 nM
EC50, CellTiter-Glo (HCC1937): 2080 nM

N.N.[Cl][Pt][Cl] [Cisplatin] (1000 nM)
normalised response (MDA-MB-468 [1]): 105%
normalised response (MCF-10A [2]): 94%
normalised response (CAL-148 [3]): 96.9%
normalised response (SK-BR-3 [4]): 92.3%

Cc1ccc(C(=O)Nc2ccc(CN3CCN(C)CC3)c(C(F)(F)F)c2)cc1C#Cc1cnc2cccnn12 [Ponatinib] (1000 nM)
normalised response (MDA-MB-468 [1]): 69.2%
normalised response (MCF-10A [2]): 34.4%
normalised response (CAL-148 [3]): 85.4%
normalised response (SK-BR-3 [4]): 68.3%

N#CCNC(=O)c1ccc(-c2ccnc(Nc3ccc(N4CCOCC4)cc3)n2)cc1 [Momelotinib]
EC50, CellTox Green (MDA-MB-468 [10]): 5270 nM
EC50, CellTox Green (MDA-MB-231 [11]): 77.2 nM
EC50, CellTox Green (CAL-85-1 [12]): 1630 nM
EC50, CellTox Green (BT-549 [13]): 3300 nM
EC50, CellTiter-Glo (Hs578T [14]): 2240 nM
EC50, CellTiter-Glo (MDA-MB-231 [5]): 5190 nM
EC50, CellTiter-Glo (MCF-10A [9]): 6590 nM
EC50, CellTiter-Glo (CAL-85-1 [15]): 2160 nM
EC50, CellTiter-Glo (BT-549 [16]): 2110 nM
EC50, CellTiter-Glo (CAL-120): 1380 nM
EC50, CellTiter-Glo (HCC1143 [17]): 1570 nM
EC50, CellTiter-Glo (SK-BR-3 [18]): 2900 nM

CN(C)/N=N/c1[nH]cnc1C(N)=O [Dacarbazine] (10000 nM)
normalised response (MDA-MB-468 [1]): 99.8%
normalised response (MCF-10A [2]): 102%
normalised response (CAL-148 [3]): 103%
normalised response (SK-BR-3 [4]): 111%

Oc1nc(-c2ccc(C(F)(F)F)cc2)nc2c1CSCC2 [XAV-939] (10000 nM)
normalised response (MDA-MB-468 [1]): 92.1%
normalised response (MCF-10A [2]): 84.5%
normalised response (CAL-148 [3]): 94.4%
normalised response (SK-BR-3 [4]): 84.5%

CNCc1ccc(-c2[nH]c3cc(F)cc4c3c2CCNC4=O)cc1 [Rucaparib]
EC50, CellTox Green (MDA-MB-468 [10]): 2.01 nM
EC50, CellTiter-Glo (BT-549 [16]): > 10000 nM
EC50, CellTiter-Glo (CAL-148 [19]): 501 nM
EC50, CellTiter-Blue viability (MFM-223): 5060 nM
EC50, CellTiter-Blue viability (CAL-51 [20]): 8870 nM

NC(=O)Nc1cc(-c2cccc(F)c2)sc1C(=O)N[C@H]1CCCNC1 [AZD7762]
EC50, CellTox Green (Hs578T [21]): 2.65 nM
EC50, CellTox Green (MDA-MB-468 [10]): 26.5 nM
EC50, CellTox Green (MDA-MB-231 [11]): 745 nM
EC50, CellTox Green (CAL-85-1 [12]): 75.8 nM
EC50, CellTox Green (CAL-51 [22]): 500 nM
EC50, CellTiter-Glo (MDA-MB-436 [8]): 237 nM
EC50, CellTiter-Glo (Hs578T [14]): 467 nM
EC50, CellTiter-Glo (MDA-MB-231 [5]): 193 nM
EC50, CellTiter-Glo (MCF-10A [9]): 499 nM
EC50, CellTiter-Glo (CAL-85-1 [15]): 112 nM
EC50, CellTiter-Glo (HDQ-P1 [23]): 570 nM
EC50, CellTiter-Glo (BT-549 [16]): 131 nM
EC50, CellTiter-Glo (HCC1937): 593 nM
EC50, CellTiter-Glo (CAL-120): 255 nM
EC50, CellTiter-Glo (HCC1143 [17]): 361 nM
EC50, CellTiter-Glo (HCC1599 [24]): 236 nM
EC50, CellTiter-Glo (SK-BR-3 [18]): 458 nM
EC50, CellTiter-Glo (MDA-MB-453): 672 nM

NC(=O)Nc1cc(-c2cccc(F)c2)sc1C(=O)N[C@H]1CCCNC1 [AZD 7762]
EC50, CellTiter-Blue viability (MDA-MB-436 [25]): 333 nM
EC50, CellTiter-Blue viability (Hs578T [26]): 211 nM
EC50, CellTiter-Blue viability (MDA-MB-468 [27]): 610 nM
EC50, CellTiter-Blue viability (BT-549 [28]): 670 nM
EC50, CellTiter-Blue viability (HCC1143 [6]): 705 nM
EC50, CellTiter-Blue viability (HCC1599 [29]): 87.7 nM
EC50, CellTiter-Blue viability (SK-BR-3 [30]): 364 nM
EC50, CellTiter-Blue viability (CAL-85-1 [31]): 215 nM
EC50, CellTiter-Blue viability (HDQ-P1 [7]): 508 nM
EC50, CellTiter-Blue viability (CAL-51 [20]): 564 nM
EC50, CellTiter-Blue viability (DU-4475): 619 nM

N[C@@H](CSC(c1ccccc1)(c1ccccc1)c1ccccc1)C(=O)O [S-trityl-L-cysteine] (40000 nM)
normalised response (MDA-MB-468 [1]): 104%
normalised response (MCF-10A [2]): 104%
normalised response (CAL-148 [3]): 100%
normalised response (SK-BR-3 [4]): 99%
